Assay: Microcalorimetric study of amorphous material
Format: physicochemical
Details: microcalorimetric study / detected in this work

SMILES: CC(C)(C)NCC(O)c1ccc(O)c(CO)c1 (stereo not shown) [salbutamol]
- amorphous (unstable) material: some amorphous material

— patent publication US20060025326A1, “Method for treating carrier particles and its use” (LAB Pharma Oy, priority 2002, published 2006)
